Assay results as given in patent US12415776B2, “Lipid nanoparticle compositions for delivering circular polynucleotides” (Orna Therapeutics, Inc., priority 2021, dated 2025).

Legend:
[1] = tested on: splenic immune cells (T cells, myeloid cells, B cells, NK cells); assay: mOX40L expression in splenic immune cells after IV LNP-circular RNA (flow cytometry); format: in vivo, C57BL/6 mice; settings: 1 mg/kg intravenously, 24 hours, IL:P 5.7, 50:10:38.5:1.5
Procedure: The ionizable lipid:helper lipid:cholesterol:PEG-lipid molar ratio of these LNPs was 50:10:38.5:1.5. Dialysis of the LNPs were performed using PBS. C57BL/6 female mice (6-8 weeks, n=4) were dosed at either LNP comprising Lipid 1 of Table […] or the Lipid 15 of Table 10f at 1 mg/kg intravenously.

splenic T cells = assay: mOX40L expression in splenic T cells after IV LNP-circular RNA; format: in vivo, C57BL/6 mice; settings: 1 mg/kg intravenously, 24 hours
Procedure: The ionizable lipid:helper lipid:cholesterol:PEG-lipid molar ratio of these LNPs was 50:10:38.5:1.5. C57BL/6 female mice (6-8 weeks, n=4) were dosed at 1 mg/kg intravenously. At 24 hours, the spleen from the mice were collected for flow cytometry analysis, tested for weight loss and measured for serum alanine aminotransferase (ALT) after blood collection. mOX40L expression was measured in splenic T cells.

CCCCCCCCCCCCC(O)CN(CCCO)CCCCCCCC(=O)OC(CCCCCCCC)CCCCCCCC (centres unmarked) [Lipid 1 of Table 10e]
mOX40L transfection in splenic immune cells [1]: comparable or higher levels of mOX40L transfection | mOX40L expression in splenic T cells (splenic T cells): resulted in expression of mOX40L in splenic T cells
